Results published in patent US9321722B2, “Bis-indolic derivatives, their uses in particular as antibacterials” (UNIVERSITE JOSEPH FOURIER, priority 2011, dated 2016).
Values after ≈ are worked out from the molar mass of the structure shown.

Columns and labels:
[1] = test system: HCT116 (human colon tumor); test: In vitro cytotoxicity; format: cell-based; settings: for inhibition at 10 µM: HCT-116, HCT116, 10^−5 M, read-out: % of cellular growth inhibition; for inhibition at 1 µM: HCT-116, HCT116, 10^−6 M, read-out: % of cellular growth inhibition (converted)
Experimental: (§1) In vitro cytotoxicity was assayed on three cell lines—KB (human mouth carcinoma), MCR5 (human lung fibroblast) and HCT116 (human colon tumor). Results are presented in table III as % of cellular growth inhibition in presence of 10^−5 M and 10^−6 M of the tested bis-indolic derivatives.

[2] = test system: MRC5 (human lung fibroblast); test: In vitro cytotoxicity; format: cell-based; settings: for inhibition at 10 µM: MRC5, 10^−5 M, read-out: % of cellular growth inhibition; for inhibition at 1 µM: MRC5, 10^−6 M, read-out: % of cellular growth inhibition (converted)
Experimental: as §1

S. pneumoniae ATCC 6303 = test: MIC microdilution (Table I-1); format: cell-based, Streptococcus pneumoniae; settings: Streptococcus pneumoniae, ATCC6303, read after 18 hours, read-out: MIC
Experimental: (§2) The microdilution method recommended by the Clinical and Laboratory Standard Institute [M07-A8, Vol. 29, N^o 2] was used. The activity of indolic compounds was tested against 29 bacterial strains belonging to 17 different species and 12 different genera (Staphylococcus, Streptococcus, Enterococcus, Listeria, Bacillus, Haemophilus, Escherichia, Klebsiella, Enterobacter, Serratia, Pseudomonas, and Acinetobacter). Bacterial inocula were prepared in Mueller Hinton broth (MH2, bioMerieux, Marcy L'Etoile, France), supplemented with 10% sheep blood for fastidious species (i.e., Streptococcus pneumoniae and Haemophilus influenzae). They were dispensed in 96 well microtiter plates (5×10^5 CFU/ml of final inoculum). Indolic compounds were added to the wells as to obtain two-fold serial concentrations (0.50-128 mg/L of final concentrations). Plates were incubated at 37° C. in ambient air, or at 37° C. in 5% CO2 enriched atmosphere for fastidious species. […] Drug-free cultures served as growth controls. Cultures receiving gentamicin, ciprofloxacin or cefotaxime served as positive controls.

S. mitis CIP 103335 = test: MIC microdilution (Table I-1); format: cell-based; settings: Streptococcus mitis, CIP103335, read after 18 hours, read-out: MIC
Experimental: as §2

[3] = test system: Haemophilus influenzae ATCC 49766; test: MIC microdilution (Table I-1); format: cell-based; settings: ATCC49766; Haemophilus influenzae ATCC 49766; read after 18 hours; read-out: MIC
Experimental: as §2

[4] = test system: Listeria innocua CIP 80.11; test: MIC microdilution (Table I-1); format: cell-based; settings: CIP80, read after 18 hours, read-out: MIC
Experimental: as §2

[5] = test system: Acinetobacter baumanii ATCC 19606; test: MIC microdilution (Table I-1); format: cell-based; settings: Acinetobacter baumannii, ATCC19606, read after 18 hours
Experimental: as §2

[6] = test system: Bacillus subtilis CIP 5262; test: MIC microdilution (Table I-1); format: cell-based; settings: CIP5262, read after 18 hours, read-out: MIC
Experimental: as §2

E. faecalis ATCC 29212 = test: MIC microdilution (Table I-1); format: cell-based; settings: Enterococcus faecalis, ATCC29212, read after 18 hours, read-out: MIC
Experimental: as §2

[7] = test system: S. pyogenes (group A) CIP 104226; test: MIC microdilution (Table I-1); format: cell-based; settings: Streptococcus pyogenes, CIP104226, read after 18 hours, read-out: MIC
Experimental: as §2

[8] = test system: Serratia marcescens CIP 103551; test: MIC microdilution (Table I-1); format: cell-based; settings: CIP103551, read after 18 hours
Experimental: as §2

[9] = test system: Pseudomonas aeruginosa CIP 5933; test: MIC microdilution (Table I-1); format: cell-based; settings: CIP5933, read after 18 hours
Experimental: as §2

[10] = test system: Escherichia coli ATCC 25922; test: MIC microdilution (Table I-1); format: cell-based; settings: ATCC25922, read after 18 hours
Experimental: as §2

[11] = test system: S. agalactiae (group B) ATCC 12400; test: MIC microdilution (Table I-1); format: cell-based; settings: Streptococcus agalactiae, ATCC12400, read after 18 hours, read-out: MIC
Experimental: as §2

S. aureus ATCC 25923 = test: MIC microdilution (Table I-1); format: cell-based; settings: Staphylococcus aureus, ATCC25923, read after 18 hours
Experimental: as §2

S. pneumoniae ATCC 49619 = test: MIC microdilution (Table I-1); format: cell-based; settings: Streptococcus pneumoniae, ATCC49619, read after 18 hours
Experimental: as §2

[12] = test system: Klebsiella pneumoniae ATCC 35657; test: MIC microdilution (Table I-1); format: cell-based; settings: ATCC35657, read after 18 hours, read-out: MIC
Experimental: as §2

E. faecium CIP 54.32 = test: MIC microdilution (Table I-1); format: cell-based; settings: Enterococcus faecium, CIP54, read after 18 hours, read-out: MIC
Experimental: as §2

[13] = test system: Enterobacter cloacae ATCC 13047; test: MIC microdilution (Table I-1); format: cell-based; settings: ATCC13047, read after 18 hours
Experimental: as §2

[14] = test system: S. aureus ATCC 106414 (VISA); test: MIC microdilution (Table I-1); format: cell-based, Staphylococcus aureus; settings: Staphylococcus aureus, read after 18 hours, read-out: MIC
Experimental: as §2

S. aureus ATCC 29213 = test: MIC microdilution (Table I-1); format: cell-based, Staphylococcus aureus; settings: Staphylococcus aureus, ATCC29213, read after 18 hours, read-out: MIC
Experimental: as §2

S. aureus SA-1199B = test: MIC microdilution (Table I-1); format: cell-based, Staphylococcus aureus; settings: Staphylococcus aureus, SA1199B, 18 h
Experimental: as §2

[15] = test system: S. aureus CIP 65.25 (MRSA); test: MIC microdilution (Table I-1); format: cell-based, Staphylococcus aureus; settings: Staphylococcus aureus, read after 18 hours, read-out: MIC
Experimental: as §2

S. aureus CIP 103428 = test: MIC microdilution (Table I-1); format: cell-based, Staphylococcus aureus; settings: Staphylococcus aureus, CIP103428, read after 18 hours, read-out: MIC
Experimental: as §2

[16] = test system: S. aureus ATCC 33592 (MRSA); test: MIC microdilution (Table I-1); format: cell-based, Staphylococcus aureus; settings: Staphylococcus aureus, read after 18 hours, read-out: MIC
Experimental: as §2

S. aureus CIP 65.6 = test: MIC microdilution (Table I-1); format: cell-based, Staphylococcus aureus; settings: Staphylococcus aureus, CIP65, read after 18 hours, read-out: MIC
Experimental: as §2

S. aureus ATCC 6538 = test: MIC microdilution (Table I-1); format: cell-based, Staphylococcus aureus; settings: Staphylococcus aureus, ATCC6538, read after 18 hours, read-out: MIC
Experimental: as §2

S. aureus ATCC 9144 = test: MIC microdilution (Table I-1); format: cell-based, Staphylococcus aureus; settings: Staphylococcus aureus, ATCC9144, read after 18 hours, read-out: MIC
Experimental: as §2

| Compound | inhibition at 10 µM [1] [%] | inhibition at 1 µM [1] [%] | inhibition at 10 µM [2] [%] | inhibition at 1 µM [2] [%] | MIC (S. pneumoniae ATCC 6303) [µg/mL] | MIC (S. mitis CIP 103335) [µg/mL] | MIC [3] [µg/mL] | MIC [4] [µg/mL] | MIC [5] [µg/mL] | MIC [6] [µg/mL] | MIC (E. faecalis ATCC 29212) [µg/mL] | MIC [7] [µg/mL] | MIC [8] [µg/mL] | MIC [9] [µg/mL] | MIC [10] [µg/mL] | MIC [11] [µg/mL] | MIC (S. aureus ATCC 25923) [µg/mL] | MIC (S. pneumoniae ATCC 49619) [µg/mL] | MIC [12] [µg/mL] | MIC (E. faecium CIP 54.32) [µg/mL] | further results |
| --- | --- | --- | --- | --- | --- | --- | --- | --- | --- | --- | --- | --- | --- | --- | --- | --- | --- | --- | --- | --- | --- |
| O=C(C(=O)N1CCCCC1c1c[nH]c2ccc(Br)cc12)c1c[nH]c2ccc(Br)cc12 (stereo not drawn) [Compound 6d, 1-(5-Bromo-1H-indol-3-yl)-2-(2-(5-bromo-1H-indol-3-yl)piperidin-1-yl)ethane-1,2-dione] | 41 ± 4 | 4 | 0 | 0 | > 128 | > 128 | > 128 | > 128 | > 128 | > 128 | > 128 | > 128 | > 128 | > 128 | > 128 | > 128 | > 128 | > 128 | > 128 | > 128 | MIC [13]: > 128 µg/mL; MIC [14]: > 128 µg/mL; MIC (S. aureus ATCC 29213): 2 to 4 µg/mL (≈ 3.78 to 7.56 µM); MIC (S. aureus SA-1199B): > 128 µg/mL; MIC [15]: > 128 µg/mL; MIC (S. aureus CIP 103428): > 128 µg/mL; MIC [16]: > 128 µg/mL; MIC (S. aureus CIP 65.6): > 128 µg/mL; MIC (S. aureus ATCC 6538): > 128 µg/mL; MIC (S. aureus ATCC 9144): > 128 µg/mL |
| CC(C)(C)OC(=O)N1CCN(C(=O)C(=O)c2c[nH]c3ccc(Br)cc23)C(c2c[nH]c3ccc(Br)cc23)C1 (stereo not drawn) [Compound 6f, tert-Butyl 3-(5-bromo-1H-indol-3-yl)-4-(2-(5-bromo-1H-indol-3-yl)-2-oxoacetyl) piperazine-1-carboxylate] | 81 ± 2 | 0 | 39 ± 4 | 0 | > 128 | > 128 | > 128 | > 128 | > 128 | > 128 | > 128 | > 128 | > 128 | > 128 | > 128 | > 128 | > 128 | > 128 | > 128 | > 128 | MIC [13]: > 128 µg/mL; MIC [14]: > 128 µg/mL; MIC (S. aureus ATCC 29213): 2 to 4 µg/mL (≈ 3.17 to 6.35 µM); MIC (S. aureus SA-1199B): > 128 µg/mL; MIC [15]: > 128 µg/mL; MIC (S. aureus CIP 103428): > 128 µg/mL; MIC [16]: > 128 µg/mL; MIC (S. aureus CIP 65.6): > 128 µg/mL; MIC (S. aureus ATCC 6538): > 128 µg/mL; MIC (S. aureus ATCC 9144): > 128 µg/mL |
